Legend:
InhA enoylreductase = InhA enoylreductase (Mycobacterium tuberculosis, UniProt P9WGR1); assay: InhA enoylreductase activity inhibition test (NADH disappearance at 340 nm); format: biochemical; settings: read-out: InhA inhibition percentage; for inhibition at 10 µM: inhibitor concentration 10 μM, preincubation time 5 min
Experimental: The InhA protein was expressed in E. coli after cloning the inhA gene in a plasmidic vector of the pET type. Growing the resulting strain and inducing expression of the inhA gene with 1 mM IPTG (isopropyl β-D-thiogalactoside) leads to the production of water-soluble InhA protein at approximately 28.5 KDa (28,368 Da) (monomeric) which is purified by standard protein purification techniques. The enzyme is present in the form of a tetramer in solution and is kept in 50 mM Hepes buffer, 50% glycerol at −20° C.
The InhA enoylreductase activity is monitored by UV spectrometry, by monitoring the disappearance of the signal of the reduced cofactor NADH at 340 nm as a function of time. The percentage inhibition is calculated by subtracting from 100 the ratio of the initial speeds (V) measured during kinetics with and without inhibitor, multiplied by 100:% inhibition=100−(Vinhib/Vblank*100). The initial speed is measured by drawing the tangent to the curve DO=f(time) at time zero.
The enzymatic reaction is carried out in a final volume of 100 μl (in a quartz vessel, optical path 1 cm). The absorption of each reaction mixture is determined with a UVIKON 293 spectrophotometer (Bio-Tek Kontron Instruments) connected to a thermostatically controlled bath which makes it possible to maintain the temperature of the vessel at 25° C. A baseline is produced during preincubation immediately before measurements begin. The measurements are carried out over 3 min after a preincubation of 5 min or 2 h.
The preincubation is carried out in 90 μl (total volume) of a solution of PIPES buffer 30 mM, NaCl 150 mM, pH=6.8 at 25° C. containing 100 nM of InhA, 100 μM, 20 μM or 10 μM of the compound to be tested (or 500 nM of the pool of INH-NAD adducts constituting the control inhibitors) and 200 μM of NADH. After 5 min or 2 h of preincubation, the addition of 35 μM of the substrate 2-trans-decenoyl-CoA initiates the reaction. […]

[1] = test system: Corynebacterium glutamicum; assay: Growth inhibition of Corynebacterium glutamicum, MTT test
Experimental: The Corynebacterium glutamicum strain is cultivated in a BHI (Brain-Heart Infusion) medium at 30° C. with stirring at 200 rpm. The DO of the culture is measured directly and set to a value of 0.002-0.003 by dilution in the LB culture medium. C. glutamicum also grows in the LB medium, and this is used instead of BHI, which is strongly coloured and interferes with the DO reading at 570 nm.
The stock solutions are prepared in DMSO at a concentration 100 times greater than the highest concentration to be tested.
The test is carried out in the same way as the test on M. smegmatis.
The tests are carried out on 96-well NUNC microplates (Merck-eurolab). All the concentrations were tested at least twice.
Each well contains 100 μl of compound in solution in the culture medium (LB with 1% final DMSO). Subsequently, 100 μl of bacterial suspension having DO 0.002 at 650 nm are added.
The plate is sealed using parafilm and incubated at 30° C. for C. glutamicum. After two hours of incubation, 50 μl of a 1 mg/ml solution of tetrazolium salt (MTT) are added to each well. After one hour of incubation at 30° C. for C. glutamicum, 100 μl of lysis buffer are added to each well and the plate is left with stirring at ambient temperature until the solution is fully homogeneous.
The optical density is measured at 570 nm with a μQuant 96-well microplate spectrophotometer, Bio-tek Instruments, Inc.

InhA enoylreductase, sequence (P9WGR1 whole entry, looked up): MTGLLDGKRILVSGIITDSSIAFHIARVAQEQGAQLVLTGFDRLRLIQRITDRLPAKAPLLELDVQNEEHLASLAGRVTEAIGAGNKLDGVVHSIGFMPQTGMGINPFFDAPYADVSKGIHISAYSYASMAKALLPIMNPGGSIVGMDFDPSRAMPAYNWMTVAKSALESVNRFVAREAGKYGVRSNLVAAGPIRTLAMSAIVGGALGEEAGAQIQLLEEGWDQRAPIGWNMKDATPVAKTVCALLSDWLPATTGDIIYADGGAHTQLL

CCCCCCCCCCCCOc1cccc(C2(O)NC(=O)c3cnccc32)c1 (centres unmarked) [Example 2, 1-(3-dodecyloxyphenyl)-1-hydroxy-1,2-dihydropyrrolo[3,4-c]pyridin-3-one]
inhibition at 100 µM (InhA enoylreductase; inhibitor concentration 100 μM, preincubation time 2 h (*)): 80%

CCCCCCCCCCCCc1cccc(C2(O)NC(=O)c3c[n+](CC(=O)OCC)ccc32)c1 (centres unmarked) [Example 3, 1-(3-dodecylphenyl)-5-[2-(ethyloxy)-2-oxoethyl]-1-hydroxy-3-oxo-1,2-dihydropyrrolo[3,4-c]pyridinium bromide]
inhibition at 10 µM (InhA enoylreductase): 19%

CCCCCCCCCCCCc1cccc(C(=O)C2C=CN(CC(=O)OCC)C=C2C(N)=O)c1 (centres unmarked) [Example 4, ethy 3-aminocarbonyl-[4-(3-dodecylbenzoyl)-1,4-dihydro-pyridin-1-yl]acetate]
inhibition at 10 µM (InhA enoylreductase): 25%

NNC(=O)c1ccncc1 [Isoniazide]
IC50 ([1]; Corynebacterium glutamicum, read-out: CI50 (concentration corresponding to 50% inhibition) on the bacterial strain C. glutamicum): > 5 mM
activity on C. glutamicum ([1]; at 5 mM): does not exhibit any activity

Reference: patent US8710073B2, “Anti-infective derivatives, method for the production thereof, pharmaceutical compositions containing same and uses of said derivatives in treatment” (Centre National de la Recherche Scientifique (C.N.R.S.), priority 2008, dated 2014)
